Experimental data from PubChem BioAssay AID1963967 (Molecular Pharmacology Branch, DTP, NCI, 2024).

System: 855422-203-R-J1-PDC spheroids with HUVEC/MSC, viability
Test: Anticancer human tumor 855422-203-R-J1-PDC patient-derived bladder carcinoma cell line growth inhibition [PI3K]
Details: for IC50: curve of first compound; for viability, T/C: stronger effect = lower value
From the text: Combinatorial screen of targeted agents with the PI3K inhibitors inavolisib, alpelisib, duvelisib, and copanlisib in multi-cell type tumor spheroids
A high-throughput screen of multi-cell type tumor spheroids was designed to identify active combinations of targeted small molecules and PI3K pathway inhibitors. Complex spheroids include a stromal component modeled by human endothelial cells (HUVEC) and fibroblasts modeled by human mesenchymal stem cells (MSCs). The concentration ranges selected for each drug and investigational agent were based upon clinically achievable concentrations if the clinical Cmax of the agent was known.
Compounds. The drugs and investigational agents: inavolisib (NSC800729), alpelisib (NSC765974), duvelisib (NSC772469), copanlisib (NSC816437), ipatasertib (NSC767898), afuresertib (NSC778305), talazoparib (NSC767125), sapanisertib (NSC764658), selumetinib (NSC741078), tovorafenib (DAY101, NSC766906), vemurafenib (NSC761431), ravoxertinib (NSC781343), sotorasib (NSC818433), MRTX1133 (NSC 836407), abemaciclib (NSC 768073), palbociclib (NSC758247), venetoclax (NSC 766270), SY5609 (NSC837396), enzalutamide (NSC755605), and darolutamide (NSC825331), were obtained from the National Cancer Institute (NCI) Developmental Therapeutics Program Chemical Repository. The FDA-approved anticancer drug set is available from the NCI Developmental Therapeutics Program. […] The stock solutions were prepared in dimethyl sulfoxide (DMSO, Sigma-Aldrich, St. Louis, MO, cat. D2650) at 800-fold the tested concentration and stored at -70 degrees C prior to their use. All drugs and investigational agents were tested over a range starting from a high concentration at or near the clinical Cmax and decreasing in half-log increments. If the clinical Cmax for an agent had not been determined, the highest concentration tested was 10 microM.
Cell Culture. All cells were maintained in an incubator at 37 degrees C and 5% CO2 with 95% humidity. The PDC lines were cultured according to standard operating procedures established by the NCI PDMR (https://pdmr.cancer.gov/sops/default.htm). All PDCs were thawed and cultured in Matrigel-coated flasks prepared with a working solution of 1X Ham's F-12 nutrient mix, without supplementation (Invitrogen, Waltham, MA, cat. 11765054), 100 U/mL penicillin-streptomycin (Invitrogen, cat. 15140122), and 2.5% Matrigel (Corning Inc., Corning, NY, cat. 354248) for the first three passages. The 354836-022-R-J1-PDC, 475296-252-R-J1-PDC, and 997726-040-R-J2-PDC lines were cultured in 6A media, which includes advanced DMEM/F-12 (Thermo Fisher Scientific, cat. 12634028), 10 mM HEPES (Thermo Fisher Scientific, cat. 15630080), 1X GlutaMAX supplement (Thermo Fisher Scientific, cat. 35050061), 0.1 mg/mL primocin (InvivoGen, San Diego, CA, cat. ant-pm-2), 10% defined fetal bovine serum, heat inactivated (HyClone Laboratories Inc., Logan, UT, cat. SH30070.03HI), 50% L-WRN conditioned media (ATCC, cat. CRL-3276), 1.25 mM N-Acetyl-L-cysteine (Sigma-Aldrich, cat. A9165), 10 mM nicotinamide (Sigma-Aldrich, cat. N0636), 1X B-27 supplement (Thermo Fisher Scientific, cat. 17504044), 1X N-2 supplement (Thermo Fisher Scientific, cat. 17502048), and 10 microM Y-27632 dihydrochloride (Tocris Bioscience, Bristol, United Kingdom, cat. 1254). The 624824-186-R-J2-PDC line was cultured in 6C/Colon 1B media, which includes all 6A media components plus 50 ng/mL human EGF recombinant protein (Thermo Fisher Scientific, cat. PHG0311). […]

[1] = second compound 0.0316 µM, first compound 0.0316 µM
[2] = second compound 0.0316 µM, first compound 0.1 µM
[3] = second compound 0.1 µM, first compound 0.0316 µM
[4] = second compound 0.1 µM, first compound 0.1 µM
[5] = second compound 0.316 µM, first compound 0.0316 µM
[6] = second compound 0.316 µM, first compound 0.1 µM
[7] = second compound 1 µM, first compound 0.0316 µM
[8] = second compound 1 µM, first compound 0.1 µM
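Note: agents incubated with spheroids for one week before read-out.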
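Throughout, for viability, T/C: 100% = DMSO vehicle-treated control wells.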

## Cn1ncnc1[C@H]1c2n[nH]c(=O)c3cc(F)cc(c23)N[C@@H]1c1ccc(F)cc1 + CC(Nc1ncnc2nc[nH]c12)c1cc2cccc(Cl)c2c(=O)n1-c1ccccc1
Second compound 0.0316 µM
  IC50: > 100 nM
Second compound 0.1 µM
  IC50: > 100 nM
Second compound 0.316 µM
  IC50: > 100 nM
Second compound 1 µM
  IC50: > 100 nM
Second compound 3.16 µM
  IC50: > 100 nM
Second compound 10 µM
  IC50: > 100 nM
Second compound 0.0316 µM, first compound 0.000316 µM
  viability, T/C: 107%
Second compound 0.0316 µM, first compound 0.001 µM
  viability, T/C: 98%
Second compound 0.0316 µM, first compound 0.00316 µM
  viability, T/C: 106%
Second compound 0.0316 µM, first compound 0.01 µM
  viability, T/C: 97.8%
[1]
  viability, T/C: 109%
[2]
  viability, T/C: 100%
Second compound 0.1 µM, first compound 0.000316 µM
  viability, T/C: 121%
Second compound 0.1 µM, first compound 0.001 µM
  viability, T/C: 104%
Second compound 0.1 µM, first compound 0.00316 µM
  viability, T/C: 113%
Second compound 0.1 µM, first compound 0.01 µM
  viability, T/C: 101%
[3]
  viability, T/C: 111%
[4]
  viability, T/C: 104%
Second compound 0.316 µM, first compound 0.000316 µM
  viability, T/C: 106%
Second compound 0.316 µM, first compound 0.001 µM
  viability, T/C: 107%
Second compound 0.316 µM, first compound 0.00316 µM
  viability, T/C: 121%
Second compound 0.316 µM, first compound 0.01 µM
  viability, T/C: 102%
[5]
  viability, T/C: 110%
[6]
  viability, T/C: 107%
Second compound 1 µM, first compound 0.000316 µM
  viability, T/C: 106%
Second compound 1 µM, first compound 0.001 µM
  viability, T/C: 107%
Second compound 1 µM, first compound 0.00316 µM
  viability, T/C: 110%
Second compound 1 µM, first compound 0.01 µM
  viability, T/C: 104%
[7]
  viability, T/C: 104%
[8]
  viability, T/C: 104%
Second compound 3.16 µM, first compound 0.000316 µM
  viability, T/C: 96.6%
Second compound 3.16 µM, first compound 0.001 µM
  viability, T/C: 92%
Second compound 3.16 µM, first compound 0.00316 µM
  viability, T/C: 97.9%
Second compound 3.16 µM, first compound 0.01 µM
  viability, T/C: 105%
Second compound 3.16 µM, first compound 0.0316 µM
  viability, T/C: 105%
Second compound 3.16 µM, first compound 0.1 µM
  viability, T/C: 104%
Second compound 10 µM, first compound 0.000316 µM
  viability, T/C: 88.3%
Second compound 10 µM, first compound 0.001 µM
  viability, T/C: 85%
Second compound 10 µM, first compound 0.00316 µM
  viability, T/C: 78.4%
Second compound 10 µM, first compound 0.01 µM
  viability, T/C: 87%
Second compound 10 µM, first compound 0.0316 µM
  viability, T/C: 89.5%
Second compound 10 µM, first compound 0.1 µM
  viability, T/C: 82.3%

## CC(C)NCC(C(=O)N1CCN(c2ncnc3c2C(C)CC3O)CC1)c1ccc(Cl)cc1 (centres undefined) + COc1c(OCCCN2CCOCC2)ccc2c3n(c(=NC(=O)c4cnc(N)nc4)nc12)CCN3
Second compound 0.00316 µM
  IC50: 1130 nM
Second compound 0.01 µM
  IC50: 1920 nM
Second compound 0.0316 µM
  IC50: 969 nM
Second compound 0.1 µM
  IC50: < 31.6 nM
Second compound 0.316 µM
  IC50: < 31.6 nM
Second compound 1 µM
  IC50: < 31.6 nM
Second compound 0.00316 µM, first compound 0.0316 µM
  viability, T/C: 108%
Second compound 0.00316 µM, first compound 0.1 µM
  viability, T/C: 62%
Second compound 0.00316 µM, first compound 0.316 µM
  viability, T/C: 71.9%
Second compound 0.00316 µM, first compound 1 µM
  viability, T/C: 57.4%
Second compound 0.00316 µM, first compound 3.16 µM
  viability, T/C: 41%
Second compound 0.00316 µM, first compound 10 µM
  viability, T/C: 18.8%
Second compound 0.01 µM, first compound 0.0316 µM
  viability, T/C: 79%
Second compound 0.01 µM, first compound 0.1 µM
  viability, T/C: 73.3%
Second compound 0.01 µM, first compound 0.316 µM
  viability, T/C: 67%
Second compound 0.01 µM, first compound 1 µM
  viability, T/C: 62%
Second compound 0.01 µM, first compound 3.16 µM
  viability, T/C: 42%
Second compound 0.01 µM, first compound 10 µM
  viability, T/C: 15.5%
[1]
  viability, T/C: 63.3%
[2]
  viability, T/C: 64.3%
Second compound 0.0316 µM, first compound 0.316 µM
  viability, T/C: 55.6%
Second compound 0.0316 µM, first compound 1 µM
  viability, T/C: 51.3%
Second compound 0.0316 µM, first compound 3.16 µM
  viability, T/C: 23%
Second compound 0.0316 µM, first compound 10 µM
  viability, T/C: 12.6%
[3]
  viability, T/C: 30.3%
[4]
  viability, T/C: 30.1%
Second compound 0.1 µM, first compound 0.316 µM
  viability, T/C: 35.3%
Second compound 0.1 µM, first compound 1 µM
  viability, T/C: 24.7%
Second compound 0.1 µM, first compound 3.16 µM
  viability, T/C: 15.5%
Second compound 0.1 µM, first compound 10 µM
  viability, T/C: 6.96%
[5]
  viability, T/C: 11.1%
[6]
  viability, T/C: 10.8%
Second compound 0.316 µM, first compound 0.316 µM
  viability, T/C: 11.4%
Second compound 0.316 µM, first compound 1 µM
  viability, T/C: 10.5%
Second compound 0.316 µM, first compound 3.16 µM
  viability, T/C: 6%
Second compound 0.316 µM, first compound 10 µM
  viability, T/C: 3.59%
[7]
  viability, T/C: 5.39%
[8]
  viability, T/C: 4.74%
Second compound 1 µM, first compound 0.316 µM
  viability, T/C: 4.07%
Second compound 1 µM, first compound 1 µM
  viability, T/C: 4.44%
Second compound 1 µM, first compound 3.16 µM
  viability, T/C: 2.79%
Second compound 1 µM, first compound 10 µM
  viability, T/C: 1.58%
